Test results as given in patent US20100016319A1, “ARYLMETHYLENE UREA DERIVATIVE AND USE THEREOF” (TORAY INDUSTRIES, INC. a corporation of Japan, priority 2005, published 2010).

Experiments:
[1] = test system: TNFα production in human whole blood; test: Inhibitory activity on LPS-induced TNFα production in human whole blood; assay type: cell-based; settings: LPS stimulation, 37° C., 5 hours
Method: Inhibitory activities of the arylmethylene urea derivatives according to the present invention to the production of TNFα induced by stimulation with a lipopolysaccharide (LPS) were investigated using human whole blood.
After mixing each of the compounds of the present invention with human blood in a 96-well flat-bottom plate, the lipopolysaccharide (LPS) was added and the mixture was allowed to react at 37° C. for 5 hours. After the reaction, the resulting mixture was centrifuged at room temperature for 15 minutes, and supernatant of the resultant was recovered. For the quantification of TNFα in the supernatant, human cytokine kit (CIS biointernational) was used.

DSS-induced colitis = test: Dextran sulfate sodium (DSS)-induced colitis model of mice, rectal bleeding score; assay type: in vivo, BALB/c mice; settings: 30 mg/kg orally every day from Day 27 to Day 31
Method: (§1) Female BALB/c mice (Japan SLC) of 7 to 9 weeks old were allowed to freely drink 3 w/v % dextran sulfate sodium (DSS) for 5 to 7 days, and then to freely drink sterilized distilled water for 5 days. This procedure was repeated 3 times to induce colitis. The uninduced (background) group was allowed to freely drink sterilized distilled water. The compound described in Example 2 was orally administered to the mice at a dose of 30 mg/kg every day from Day 27 to Day 31 counted from the start of the test, and rectal bleeding was scored (0: occult blood-negative, 2: occult blood-positive, 4: apparent bleeding) by using the method described by Murthy et al (see, for example, Dig Dis Sci., 38, 1722 (1993)).
On the other hand, the same test as in Example 452 was repeated except that 1-(4-(pyridin-4-yloxy)benzyl)-3-(3-t-butylisoxazol-5-yl)urea (the structural formula thereof is shown below) which is a compound included in WO 04/037789 was used in place of the compound of Example 2. The score on Day 32 (the last day of the test) of the colitis-uninduced group was 0, while the score of the colitis-induced group rose to 1.2±0.2.
as §1, with “Example 10” for “Example 2”
On the other hand, the same test as in Example 453 was repeated except that 1-(4-(pyridin-4-yloxy)benzyl)-3-([…])urea (the structural formula thereof is shown below) which is a compound included in WO 04/037789 was used in place of the compound of Example 10. The score on Day 32 (the last day of the test) of the colitis-uninduced group was 0, while the score of the colitis-induced group rose to 1.2±0.2.

[2] = test system: rhythmic bladder contractions; test: Rhythmic bladder contractions model in anesthetized rats; assay type: in vivo, SD rats; settings: i.v., from a dose of 3 mg/kg; 10 minutes before and after administration; FIG. 1
Excerpt: Using anesthetized rat rhythmic bladder contractions model, the inhibitory effect of the arylmethylene urea derivatives of the present invention on the detrusor hyperreflexia was investigated.
Female SD rats were anesthetized with an intraperitoneal injection of urethane (1.0 g/kg). A polyethylene tube was inserted from external urethral orifice into the bladder and the tube was fixed by ligating. The other end of the tube was equipped with a three-necked cock, and one of the necks thereof was connected to a pressure transducer for the measurement of intravesical pressure and the other neck was connected to a syringe for the infusion of physiological saline into the bladder. Thirty minutes after the surgery was completed, physiological saline in appropriate volume was infused via the tube in order to induce rhythmic bladder contractions. After stable rhythmic bladder contractions were obtained, a solution of each test compound or the solvent thereof was administered from a caudal vein in a volume of 0.5 mL/kg, and the effect on the frequency of bladder contractions was investigated. As the test compounds, the compounds of Examples 2 and 9 were used.
In each of the figures, the ordinate indicates the number of rhythmic bladder contractions for 10 minutes before and after administration of the compound.

[3] = test system: cyclophosphamide-induced cystitis rats; test: Cyclophosphamide-induced overactive bladder (cystitis) model in rats, cystometrogram; assay type: in vivo, SD rats; settings: i.v., from a dose of 3 mg/kg; FIG. 3-A
Method: Using cyclophosphamide-induced cystitis rats known as an overactive bladder (pollakiuria) model based on the hyperactivity of afferent sensory C-fibers, the effect of compounds on the cystometrograms was investigated.
Female SD rats were pre-treated with cyclophosphamide (150 mg/kg) intraperitoneally one day before (18 hours before) the assay in order to induce cystitis. On the next day, each of rats was anesthetized with an intrapertoneral injection of urethane (1.0 g/kg). Next, a small incision was formed in the hypogastrium, and both ureters were ligated, followed by forming small incision in the ureters at the side of the kidney. Then, the bladder apex was incised and a polyethylene tube filled with physiological saline was inserted and indwelled. The other end of the tube was equipped with a three-necked cock, and one of the necks thereof was connected to a pressure transducer for the measurement of intravesical pressure and the other neck was connected to an infusion pomp in order to infuse physiological saline. Thirty minutes after the surgery was completed, physiological saline was continuously infused (3.6 mL/hr) in order to obtain a continuous cystometrograms. One minute before the infusion, a solution of each test compound or the solvent thereof was administered from a caudal vein in a volume of 0.5 mL/kg. […]

How did the IC50 [1] turn out when `Cc1ccc(-n2nc(C(C)(C)C)cc2NC(=O)NCc2ccccc2Oc2ccnc(N3CCOCC3)n2)cc1` [Example 2, 1-(2-(2-morpholinopyrimidin-4-yloxy)benzyl)-3-(3-t-butyl-1-p-tolyl-1H-pyrazol-5-yl)urea] was run?
Its IC50 is 720 nM.

What about the “amelioration of symptoms / improvement in the rectal bleeding score (in words)” value (DSS-induced colitis; Day 32) of the same molecule?
Its value is “apparent amelioration of symptoms was observed”.

What about the “rectal bleeding score on Day 32 (0: occult blood-negative, 2: occult blood-positive, 4: apparent bleeding)” value (DSS-induced colitis; female BALB/c mice, 3 w/v % DSS) of the same molecule?
Its value is 0.2±0.1.

What about the “effect on the number of rhythmic bladder contractions” value [2] of the same molecule?
Its value is “inhibited the rhythmic bladder contractions dose-dependently”.

What about the “effect on the increase in the frequency of urination (voiding episodes during 20 minutes)” value [3] of the same molecule?
The value was “dose-dependently reduced the increase in the frequency of urination”.
